The nature of data set [1]: logD by shake flask method (octanol / PBS pH 7.4, HPLC). It is filed as physicochemical. The conditions noted are these: octanol / PBS pH 7.4, shake flask. The protocol: In order to classify the inventive compounds according to their lipophilicity, LogD values (distribution coefficient) were determined by means of the well-established shake flask method, measuring the partition of a compound between an octanol and phosphate-buffered saline (PBS, pH 7.4) by HPLC.
The LogD is pH dependent and is a “predictor” for in-vivo properties. LogD combines lipophilicity (intrinsic structural property of the molecule, logP) and ionizability (pKa). Compounds with a moderate lipophilicity (LogD values from 0 to 3) are usually advantaged for oral absorption, being in balance between solubility and permeability. However, sophisticated formulation of a compound might improve oral bioavailability for highly lipophilic compounds.

For data set [2], the target named is T1, recombinant human transglutaminase 2 (Homo sapiens, UniProt P21980).
T1 construct: purchased Zedira T022
T1 sequence (P21980 1-687): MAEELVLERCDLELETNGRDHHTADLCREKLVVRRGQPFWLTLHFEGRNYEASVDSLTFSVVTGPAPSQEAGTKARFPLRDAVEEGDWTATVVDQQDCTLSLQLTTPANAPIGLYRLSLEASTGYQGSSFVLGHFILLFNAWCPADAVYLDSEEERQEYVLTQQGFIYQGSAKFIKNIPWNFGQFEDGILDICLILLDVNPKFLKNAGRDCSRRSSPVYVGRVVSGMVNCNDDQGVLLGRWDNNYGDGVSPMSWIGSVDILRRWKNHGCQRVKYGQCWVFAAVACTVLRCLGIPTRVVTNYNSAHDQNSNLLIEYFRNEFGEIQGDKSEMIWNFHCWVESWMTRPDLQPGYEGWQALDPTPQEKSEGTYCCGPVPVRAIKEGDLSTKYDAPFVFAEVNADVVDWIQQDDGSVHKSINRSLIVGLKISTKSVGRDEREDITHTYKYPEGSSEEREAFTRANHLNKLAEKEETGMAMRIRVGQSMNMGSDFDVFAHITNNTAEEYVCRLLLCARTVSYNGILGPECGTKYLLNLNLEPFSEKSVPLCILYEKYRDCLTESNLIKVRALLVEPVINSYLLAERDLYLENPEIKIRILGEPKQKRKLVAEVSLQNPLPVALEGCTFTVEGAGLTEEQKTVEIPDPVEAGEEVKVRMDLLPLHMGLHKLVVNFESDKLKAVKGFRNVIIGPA
Kind of data set: Transglutaminase assay (DCC-assay): incorporation of dansylcadaverine into dimethylcasein. It is filed as biochemical. The note with it: for IC50: recombinant human TG2 10 nM, dansylcadaverine incorporation into dimethylcasein, read-out: IC50 TG2. The protocol:
To illustrate the advantage of branched alkyl moieties over aromatic moieties, we refer to reference compounds Ref. 2 (ZED1227, U.S. Pat. No. 9,434,763 B2) and Ref. 3 (A8, ZED1047). Inhibition data were determined using the classical fluorescent transamidation assay (dansylcadaverine incorporation into methylated casein, DCC-assay) as described [Buchold, C.; Hils, M.; Gerlach, U.; Weber, J.; Pelzer, C.; Heil, A.; Aeschlimann, D.; Pasternack, R. Features of ZED1227: The First-In-Class Tissue Transglutaminase Inhibitor Undergoing Clinical Evaluation for the Treatment of Celiac Disease. Cells 2022, 11, 1667. https://doi.org/10.3390/cells11101667]. Casein is one of the best known high molecular weight (24 kDa) protein substrates for transglutaminases. Please note, the IC50 value of Ref. 3 (A8) published in U.S. Pat. No. 9,434,763 B2 cannot be compared to the present data, relying on a fluorogenic isopeptidase assay.
To this extent, inhibition data were determined using the classical fluorescent transamidation assay (dansylcadaverine incorporation into methylated casein, DCC-assay) as described in Büchold et al. [Büchold, C.; Hils, M.; Gerlach, U.; Weber, J.; Pelzer, C.; Heil, A.; Aeschlimann, D.; Pasternack, R. Features of ZED1227: The First-In-Class Tissue Transglutaminase Inhibitor Undergoing Clinical Evaluation for the Treatment of Celiac Disease. Cells 2022, 11, 1667. https://doi.org/10.3390/cells11101667]. Casein is one of the best known high molecular weight (24 kDa) protein substrates for transglutaminases. Inhibition data of the inventive compounds was compared with inhibition of compounds disclosed in U.S. Pat. No. 9,434,763 B2, particularly, compound A8, which is denoted herein as Reference 3. It is noteworthy that the IC50 values of compounds A8 published in U.S. Pat. No. 9,434,763 B2 and E16 from U.S. Pat. No. 11,072,634 B2 cannot be compared to the present data, relying on a fluorogenic isopeptidase assay.
For the determination of potency of inhibitors against tissue transglutaminase, the incorporation of dansylcadaverine into dimethylcasein (Zedira product T036, Lorand et al., Anal Biochem, 1971, 44:221-31) was measured using recombinant human transglutaminase 2 (Zedira Product T022).
The tissue transglutaminase is diluted in buffer (50 mM Tris-HCl, 7.5 mM CaCl2), 150 mM NaCl, pH=7.4). The final concentration of TG2 in the assay is 10 nM.
A 10 mM inhibitor stock solution is prepared in DMSO, and from this a serial 1:2-fold dilution series is prepared also in DMSO. Each of the initial dilutions is subsequently diluted 1:50-fold with buffer (50 mM Tris-HCl, 7.5 mM CaCl2), 150 mM NaCl, pH=7.4) to yield the final working dilutions containing 2% (v/v) DMSO.
15 μl of inhibitor working dilution are added per well of a 96 well microtiter plate. As control, 15 μl of a 2% (v/v) DMSO solution prepared using the buffer mentioned above are added per well.
Immediately before starting the assay, 600 μl transglutaminase working solution are added to 11.4 ml assay buffer (50 mM Tris-HCl, 10 mM CaCl2), 10 mM glutathione, 2.5% glycerol, 16.7 µM dansylcadaverine, 4 uM N,N-dimethylcasein, 200 mM NaCl, pH=8.0). 285 μl of this reaction mix are added per well containing the inhibitor.
Increase in fluorescence is measured using λex=330 nm and λem=500 nm at 37° C. for 30 min. A slope of the increase in fluorescence between 20 and 30 min is calculated for determination of the IC50 value (inhibitor concentration at which 50% of the initial activity is blocked).
Analysis of enzymatic activity is performed by calculation of the slope of an increase in fluorescence intensity. IC50 values are calculated by plotting the enzymatic activity (as percentage from control containing 2% DMSO instead of inhibitor) against the inhibitor concentration. IC50 is defined as the inhibitor concentration blocking 50% of initial enzyme activity.

Data set [3] is described as follows: Caco-2 permeability assay (CacoReady kit). It is filed as in vitro ADME. The conditions noted are these: human, Caco-2, Caco-2 barrier, CacoReady kit; above 1×10^−6 cm/s classified as permeable. Here is the method:
Permeability coefficients (Papp values) were obtained from Caco-2 barrier studies predicting oral/intestinal bioavailability of the tested compounds. The assays were performed by using CacoReady™ ready-to-use kits from ReadyCell according to the manufacturers protocol.

What is called logD is the decadic logarithm of the distribution of all forms, ionised or not, between an organic phase and buffer at a given pH. Higher therefore signals higher lipophilicity. Broadly, the IC50 is the midpoint of a concentration-inhibition curve. Broadly, the Papp is a coefficient for how fast a substance crosses the barrier. In data set [1], `Cn1nccc1C(=O)N[C@@H](CCC(=O)C(N)=O)C(=O)Nc1cccn(CC(=O)NC2C3CC4CC(C3)CC2C4)c1=O` (stereo partly drawn) [II-144, (S)-N1-(1-(2-(2-adamantylamino)-2-oxoethyl)-2-oxo-1,2-dihydropyridin-3-yl)-2-(1-methyl-1H-pyrazole-5-carboxamido)-5-oxohexanediamide] returned a logD below 1. The IC50 in data set [2] is 400 to 2500 nM. For the same compound, in data set [3], the Papp is below 1 ×10⁻⁶ cm/s.
`CCn1c(C(=O)N[C@@H](CCC(=O)C(=O)NC2CCCCC2)C(=O)Nc2cccn(CC(=O)NC34CC(C3)C4)c2=O)cc2ccccc21` [II-183, (S)-N1-(1-(2-(bicyclo[1.1.1]pentan-1-ylamino)-2-oxoethyl)-2-oxo-1,2-dihydropyridin-3-yl)-N6-cyclohexyl-2-(1-ethyl-1H-indole-2-carboxamido)-5-oxohexanediamide] came in with a logD in data set [1] of 1 to 3. In data set [2], the IC50 lay within 40 to 400 nM. This compound gave an apparent permeability (Papp) in data set [3] of 1 to 10 ×10⁻⁶ cm/s.
Compound `CNC(=O)C(=O)CC[C@H](NC(=O)c1cnccn1)C(=O)Nc1cccn(CC(=O)NC2C3CC4CC(C3)CC2C4)c1=O` (stereo partly drawn) [II-53, (S)-N1-(1-(2-(2-adamantylamino)-2-oxoethyl)-2-oxo-1,2-dihydropyridin-3-yl)-N6-methyl-5-oxo-2-(pyrazine-2-carboxamido)hexanediamide] showed a logD in data set [1] of 1 to 3. In addition, in data set [2], the IC50 lay in the range of 40 to 400 nM. Also, in data set [3], the Papp was below 1 ×10⁻⁶ cm/s.
Taken in the same sequence, the figures for `CNC(=O)C(=O)CC[C@H](NC(=O)c1oc2ccccc2c1C)C(=O)Nc1cccn(CC(=O)NC2CC3CCC2CC3)c1=O` (stereo partly drawn) [II-98, (2S)-N1-(1-(2-(bicyclo[2.2.2]octan-2-ylamino)-2-oxoethyl)-2-oxo-1,2-dihydropyridin-3-yl)-N6-methyl-2-(3-methylbenzofuran-2-carboxamido)-5-oxohexanediamide] were 1 to 3, 40 to 400 nM and 1 to 10 ×10⁻⁶ cm/s.
Consider `CNC(=O)C(=O)CC[C@H](NC(=O)c1c[nH]cn1)C(=O)Nc1cccn(CC(=O)NC[C@@H]2CC[C@@H]3C[C@H]2C3(C)C)c1=O` [II-209, (S)-N1-(1-(2-(((1R,2R,5R)-6,6-dimethylbicyclo[3.1.1]heptan-2-yl)methylamino)-2-oxoethyl)-2-oxo-1,2-dihydropyridin-3-yl)-2-(1H-imidazole-4-carboxamido)-N6-methyl-5-oxohexanediamide], for which the logD in data set [1] lay within 1 to 3. Further, in data set [2], the IC50 lay within 400 to 2500 nM. This compound also returned a Papp in data set [3] below 1 ×10⁻⁶ cm/s.
`CNC(=O)C(=O)CC[C@H](NC(=O)c1nccc2cnccc12)C(=O)Nc1cccn(CC(=O)NC23CCC(C2)C3)c1=O` [II-188, (S)-N1-(1-(2-(bicyclo[2.1.1]hexan-1-ylamino)-2-oxoethyl)-2-oxo-1,2-dihydropyridin-3-yl)-N6-methyl-2-(2,6-naphthyridine-1-carboxamido)-5-oxohexanediamide]: the logD in data set [1] is below 1. Also, in data set [2], the IC50 is 400 to 2500 nM. The same compound displayed a Papp in data set [3] below 1 ×10⁻⁶ cm/s.
In the case of `CNC(=O)C(=O)CC[C@H](NC(=O)c1csc(Cl)n1)C(=O)Nc1cccn(CC(=O)NC2C3CC4CC(C3)CC2C4)c1=O` (stereo partly drawn) [II-36, (S)-2-(2-chlorothiazole-4-carboxamido)-N1-(1-(2-(2-adamantylamino)-2-oxoethyl)-2-oxo-1,2-dihydropyridin-3-yl)-N6-methyl-5-oxohexanediamide], the logD in data set [1] was in the range of 1 to 3. The IC50 in data set [2] was in the range of 40 to 400 nM. Moreover, in data set [3], the Papp was 1 to 10 ×10⁻⁶ cm/s.
On to `CNC(=O)C(=O)CC[C@H](NC(=O)c1cc2c(Br)cccc2o1)C(=O)Nc1cccn(CC(=O)NC2C3CC4CC(C3)CC2C4)c1=O` (stereo partly drawn) [II-5, (S)-2-(4-bromobenzofuran-2-carboxamido)-N1-(1-(2-(2-adamantylamino)-2-oxoethyl)-2-oxo-1,2-dihydropyridin-3-yl)-N6-methyl-5-oxohexanediamide], for which the log distribution coefficient (logD) in data set [1] fell in the range of 3 to 5. Also, the IC50 in data set [2] was below 40 nM. In addition, in data set [3], the Papp was in the range of 1 to 10 ×10⁻⁶ cm/s.
In the case of `CNC(=O)C(=O)CC[C@H](NC(=O)c1cnnn1C)C(=O)Nc1cccn(CC(=O)N[C@@H]2C[C@H]3CC[C@@H]2C3)c1=O` [II-130, (2S)-N1-(1-(2-((1R,2R,4S)-bicyclo[2.2.1]heptan-2-ylamino)-2-oxoethyl)-2-oxo-1,2-dihydropyridin-3-yl)-N6-methyl-2-(1-methyl-1H-1,2,3-triazole-5-carboxamido)-5-oxohexanediamide], the logD in data set [1] is below 1. Moreover, the IC50 in data set [2] fell in the range of 40 to 400 nM. Besides, the Papp in data set [3] was below 1 ×10⁻⁶ cm/s.
Consider `CNC(=O)C(=O)CC[C@H](NC(=O)c1sccc1Br)C(=O)Nc1cccn(CC(=O)NC2C3CC4CC(C3)CC2C4)c1=O` (stereo partly drawn) [II-42, (S)-2-(3-bromothiophene-2-carboxamido)-N1-(1-(2-(2-adamantylamino)-2-oxoethyl)-2-oxo-1,2-dihydropyridin-3-yl)-N6-methyl-5-oxohexanediamide], for which the logD in data set [1] lay in the range of 1 to 3. Besides, the IC50 in data set [2] was in the range of 40 to 400 nM. In data set [3], the Papp lay in the range of 1 to 10 ×10⁻⁶ cm/s.
`CCC(CC)CNC(=O)Cn1cccc(NC(=O)[C@H](CC/C=C/C(=O)OC)NC(=O)c2cncn2C)c1=O` [Ref. 2, reference compound]: the “fold more potent compared to Ref. 3” value in data set [2] (DCC-assay, IC50 ratio versus Ref. 3 (A8)) came out at 80 fold. Besides, the half-inhibitory concentration (IC50) in data set [2] lay within 40 to 400 nM.
Consider `CNC(=O)C(=O)CC[C@H](NC(=O)c1cn[nH]n1)C(=O)Nc1cccn(CC(=O)NC2C3CC4CC(C3)CC2C4)c1=O` (stereo partly drawn) [II-132, (S)-N1-(1-(2-(2-adamantylamino)-2-oxoethyl)-2-oxo-1,2-dihydropyridin-3-yl)-N6-methyl-5-oxo-2-(1H-1,2,3-triazole-4-carboxamido)hexanediamide], for which the IC50 in data set [2] lay in the range of 400 to 2500 nM.
